Like-named read-outs stand apart in the source and are kept apart here. Non-standard residues stand in square brackets, D forms with d. Residues, ends and D or L forms follow the SMILES beside them. Dab(3S-OH) = NC[C@H](O)[C@H](N)C(=O)O; Phe(2-F) = N[C@@H](Cc1ccccc1F)C(=O)O; ΔZArg = N=C(N)NCC/C=C(\N)C(=O)O; dOrn = NCCC[C@@H](N)C(=O)O; Dab = NCC[C@H](N)C(=O)O
Assays:
[1] = system: Escherichia coli BAA-2471; assay: microbe, parasite or virus in culture
From the text: (§1) Reference strains are from the German Collection of Microorganisms and Cell Cultures (DSMZ), the American Type Culture Collection (ATCC), the National Collection of Type Cultures (NCTC), and the Medical and Molecular Microbiology, Faculty of Science and Medicine, University of Fribourg, Switzerland.

[2] = system: Citrobacter freundii DSM 30039; assay: microbe, parasite or virus in culture
From the text: as §1

[3] = system: Enterobacter cloacae DSM 14563; assay: microbe, parasite or virus in culture
From the text: as §1

[4] = system: Gentamicin-resistant K. pneumoniae (16); assay: microbe, parasite or virus in culture
From the text: as §1

[5] = system: Serratia marcescens DSM 17174; assay: microbe, parasite or virus in culture
From the text: as §1

[6] = system: Pseudomonas aeruginosa DSM 1117; assay: microbe, parasite or virus in culture
From the text: as §1

[7] = system: Enterobacter aerogenes DSM 30053; assay: microbe, parasite or virus in culture
From the text: as §1

[8] = system: Acinetobacter baumannii ATCC 19606; assay: microbe, parasite or virus in culture
From the text: as §1

[9] = system: Klebsiella pneumoniae (56); assay: microbe, parasite or virus in culture
From the text: as §1

[10] = system: Klebsiella pneumoniae NCTC 13442; assay: microbe, parasite or virus in culture
From the text: as §1

[11] = system: Klebsiella pneumoniae NCTC 13443; assay: microbe, parasite or virus in culture
From the text: as §1

[12] = system: Escherichia coli (101); assay: microbe, parasite or virus in culture; settings: 101 clinical isolates
From the text: as §1

[13] = system: Klebsiella pneumoniae ATCC BAA-1904; assay: microbe, parasite or virus in culture
From the text: as §1

[14] = system: Klebsiella pneumoniae NCTC 13439; assay: microbe, parasite or virus in culture
From the text: as §1

[15] = system: Staphylococcus epidermidis ATCC 12228; assay: microbe, parasite or virus in culture
From the text: as §1

[16] = system: Enterococcus faecalis DSM 2570; assay: microbe, parasite or virus in culture
From the text: as §1

[17] = system: Citrobacter freundii (16); assay: microbe, parasite or virus in culture
From the text: as §1

[18] = system: Ciprofloxacin-resistant E. coli (19); assay: microbe, parasite or virus in culture
From the text: as §1

[19] = system: Streptococcus pneumoniae DSM 2134; assay: microbe, parasite or virus in culture
From the text: as §1

[20] = system: Escherichia coli ATCC 25922; assay: microbe, parasite or virus in culture
From the text: as §1

[21] = system: Enterococcus faecium DSM 20477; assay: microbe, parasite or virus in culture
From the text: as §1

[22] = system: Enterobacter cloacae (13); assay: microbe, parasite or virus in culture
From the text: as §1

[23] = system: Klebsiella pneumoniae ATCC BAA-1905; assay: microbe, parasite or virus in culture
From the text: as §1

[24] = system: Staphylococcus aureus ATCC 29213; assay: microbe, parasite or virus in culture
From the text: as §1

[25] = system: Klebsiella pneumoniae ATCC 43816; assay: microbe, parasite or virus in culture
From the text: as §1

[26] = system: Stenotrophomonas maltophilia ATCC 13637; assay: microbe, parasite or virus in culture
From the text: as §1

[27] = system: Escherichia coli BAA-2469; assay: microbe, parasite or virus in culture
From the text: as §1

[28] = system: Citrobacter kozeri DSM 4595; assay: microbe, parasite or virus in culture
From the text: as §1

[29] = system: Ciprofloxacin-resistant K. pneumoniae (27); assay: microbe, parasite or virus in culture
From the text: as §1

[30] = system: Enterobacter cloacae 10.72; settings: Ambler class C carbapenem resistant; AmpC overexpressed + TEM-1 + OXA-1
From the text: as §1

[31] = system: Klebsiella pneumoniae DUB; settings: Ambler class D carbapenemase; OXA-48 + CTX-M15 + TEM-1 + SHV-1 + OXA-1 + CMY-2
From the text: as §1

[32] = system: Citrobacter freundii MAU; settings: Ambler class C carbapenem resistant; AmpC overexpressed + TEM-3
From the text: as §1

[33] = system: Polymyxin B-resistant E. coli (2)
From the text: as §1

[34] = system: Escherichia coli MIN; settings: Ambler class A carbapenemase; KPC-3 + OXA-9
From the text: as §1

[35] = Ambler class B carbapenemase, NDM-1
[36] = 16 gentamicin-resistant isolates
[37] = 19 ciprofloxacin-resistant isolates
[38] = 27 ciprofloxacin-resistant isolates

N=C(N)NCC/C=C(\NC(=O)[C@H](CCCCN)NC(=O)[C@H](Cc1ccccc1F)NC(=O)[C@@H]1CCCN1C(=O)[C@@H](CCCN)NC(=O)CNC(=O)[C@H](CCN)NC(=O)[C@@H](NC(=O)[C@@H](N)CCCCN)[C@@H](O)CN)C(=O)O [NOSO-502] (H-K[Dab(3S-OH)][Dab]G[dOrn]P[Phe(2-F)]K[ΔZArg]-OH)
16 mg/L: MIC ([26]; ATCC 13637)
0.25 mg/L: MIC ([15]; ATCC 12228)
1 to 4 mg/L: MIC range [17] | MIC range [22]; 13
0.5 mg/L: MIC [31]
1 mg/L: MIC ([10]; NCTC 13442) | MIC ([11]; NCTC 13443) | MIC ([14]; NCTC 13439) | MIC ([23]; ATCC BAA-1905) | MIC ([24]; ATCC 29213) | MIC ([25]; ATCC 43816) | MIC [30] | MIC [32]
4 to 8 mg/L: MIC range ([33]; Polymyxin B-resistant (2))
0.5 to 16 mg/L: MIC range [9]; 56 | MIC range ([29]; Ciprofloxacin-resistant (27))
>64 mg/L: MIC ([6]; DSM 1117) | MIC ([8]; ATCC 19606) | MIC ([16]; DSM 2570)
64 mg/L: MIC ([19]; DSM 2134) | MIC ([21]; DSM 20477)
8 mg/L: MIC 90% [12]
0.5 to 2 mg/L: MIC range ([4]; Gentamicin-resistant (16))
2 to 32 mg/L: MIC range ([18]; Ciprofloxacin-resistant (19))
2 mg/L: MIC ([2]; DSM 30039) | MIC ([3]; DSM 14563) | MIC ([7]; DSM 30053) | MIC ([13]; ATCC BAA-1904) | MIC ([27]; BAA-2469) | MIC ([28]; DSM 4595)
4 mg/L: MIC ([1]; BAA-2471) | MIC ([5]; DSM 17174) | MIC 50% [12] | MIC ([20]; ATCC 25922) | MIC [34]

polymyxin B [PMB]
>32 mg/L: MIC ([5]; reference strain) | MIC ([16]; reference strain) | MIC ([19]; reference strain) | MIC ([21]; reference strain)
0.5 to 32 mg/L: MIC range [18, 37]
1 mg/L: MIC ([3]; reference strain) | MIC 90% [4, 36] | MIC ([6]; reference strain) | MIC 90% [12] | MIC 90% ([17]; 16 clinical isolates) | MIC 90% [18, 37] | MIC ([25]; reference strain) | MIC ([26]; reference strain) | MIC 90% [29, 38]
8 mg/L: MIC 90% ([22]; 13 clinical isolates)
0.5 mg/L: MIC ([2]; reference strain) | MIC 50% [4, 36] | MIC ([7]; reference strain) | MIC ([8]; reference strain) | MIC 50% ([9]; 56 clinical isolates) | MIC ([10]; Ambler class D carbapenemase, OXA-48) | MIC [11, 35] | MIC 50% [12] | MIC ([13]; Ambler class A carbapenemase, KPC-3) | MIC ([14]; Ambler class B carbapenemase, VIM-1) | MIC 50% ([17]; 16 clinical isolates) | MIC 50% [18, 37] | MIC ([20]; reference strain) | MIC 50% ([22]; 13 clinical isolates) | MIC ([23]; Ambler class A carbapenemase, KPC-2) | MIC 50% [29, 38] | MIC [30] | MIC [31] | MIC [32] | MIC [34]
4 to 32 mg/L: MIC range ([33]; 2 polymyxin B-resistant isolates)
0.5 to 1 mg/L: MIC range [4, 36]
16 mg/L: MIC ([15]; reference strain) | MIC ([24]; reference strain)
0.25 to 32 mg/L: MIC range ([9]; 56 clinical isolates)
0.5 to 16 mg/L: MIC range ([22]; 13 clinical isolates)
4 mg/L: MIC 90% ([9]; 56 clinical isolates)
0.25 mg/L: MIC [1, 35] | MIC [27, 35] | MIC ([28]; reference strain)
0.25 to 1 mg/L: MIC range ([17]; 16 clinical isolates)

Source: PMC6125496 (Antimicrobial Agents and Chemotherapy, 2018)
